Results published in patent publication US20140221639A1, “RADIOLABELED NUCLEOSIDE ANALOGUE, AND PREPARATION METHOD AND USE THEREOF” (Institute of Nuclear Energy Research Atomic Energy Council, …, priority 2011, published 2014).
Where “and” joins values, the source holds several entries; their conditions need not be identical. Identical values can stand only once. Like-named read-outs stand apart in the source and are kept apart here. Values belong to the molecule of their own block, whether it stands above or below them.

Experiments:
[1] = in human body, as shown in literatures; cited from earlier work
[2] = in mice, as shown in literatures; cited from earlier work
[3] = literature; cited from earlier work
[4] = Analysis of metabolites in blood and urine through NP-TLC; assay type: in vivo, FVB/N mice; conditions: NP-TLC EA/EtOH = 5/1
Experimental: Blood samples were obtained by heart puncture, and then centrifuged at 13,000 rpm for 10 min. Then, the supernatant (about 300 μL) was placed in a 1.5 mL centrifuge tube containing equal amount of ethanol, and then centrifuged again to obtain the serum.

NG4TL4-WT tumor = test: Biodistribution study in tumor-bearing mice; assay type: in vivo, FVB/N mice; conditions: for Biodistribution Blood / Biodistribution Bone / Biodistribution Brain / Biodistribution Heart / Biodistribution Kidney / Biodistribution Large Intestine / Biodistribution Liver / Biodistribution Lung / Biodistribution Marrow / Biodistribution Muscle / Biodistribution Pancreas / Biodistribution Small Intestine / Biodistribution Spleen / Biodistribution Stomach / Biodistribution Tumor / T/B (aggregation ratio of tumor to blood) / T/M (tumor-muscle aggregation ratio): 80~90 μCi tail vein, FVB/N mice with NG4TL4-WT tumor
From the text: […] Tumor and 13 other tissures (blood, heart, lung, liver, stomach, small intestine, large intestine, spleen, pancreas, kidney, bone, marrow, and muscle) were removed, rinsed, weighed, and determined for radioactivity with a γ scintilation counter. Uptake of the radioactive trancers in the tissues (counts per min) was calibrated against decay, normalizedto sample weight, and expressed as percentages of injected dosage per gram of tissue (% ID/g) and aggregation ratio of tumor to blood.

[5] = mouse, in vivo, iv
NG4TL4 sarcoma cells = test: Study on incorporation in DNA; assay type: cell-based; conditions: 1 μCi/mL medium, 0.5-8 h
Experimental: DNA was extracted with Genomic DNA Mini Kit (Geneaid Biotech Ltd., Taiwan). NG4TL4 cell lines were harvested and inoculated into a petri dish at 2×10^6. […] At 0.5, 1, 2, 4 and 8 h after incubation, the medium was removed, and the cells was washed two times with ice-cold PBS, and then sheared with trypsin and collected to a centrifuge tube for centrifugation (at […] for 1 min). The supernatant was removed, while 50 μL remaining buffer was left to keep the cells in suspension. 300 μL cell lysis buffer was added to the sample and uniformly mixed, the cells was cultured in a water bath at 60° C. for a sereral minutes till the solution was transparent (the sample was inversed once every 3 min). 2 μL RNAse (25 mg/mL) was added to the sample and uniformly mixed, after 5-min incubation at room temperature, 100 μL protein removal buffer was added to the sample, uniformly mixed immediately, and centrifuged for 3 min at full speed (14000 rpm) after 5-min incubation on ice. The resulting solution was transferred as a suspension to another tube, and isopropanol was added and thoroughly mixed. […] In the test, DNA purity was determined at absorption wavelengths of 260 nm and 280 nm, and the ratio of absorbances (OD260/OD280) was about 1.7.

LL/2 cells = test: Cellular uptake test (ratio of cell to medium); assay type: cell-based; conditions: 1, 2, 4 and 8 h
Experimental: (§1) 2×10^6 cells was inoculated in a 15 cm^2 dish containing 14 mL medium supplemented with 10% FBS. […] At specified time points (using I-131 tracer at 1, 2, 4 and 8_h), the cells on the dish was harvested by using a cell scraper. Then, a cell suspension was transferred to a 15 mL centrifuge tube and centrifuged (at 3500 rpm) for 2 min. After centrifugation, 100 μL centrifugate was collected to a preweighed counting tube and directly poured into a maintained medium. Cell pellets were frozen with dry ice, and further collected into another weighed counting tube. […] Accumulation of activity of radioactive trancer in cell in vitro is represented by a radio of cell to medium:
(§2) Uptake experimental results of the two radioactive nucleoside analogues [^131I]IUdR and [^131I]ICdR in cells are as shown in FIGS. 4((a), (b)).

NG4TL4 cells = test: Cellular uptake test (ratio of cell to medium); assay type: cell-based; conditions: 1, 2, 4 and 8 h
Experimental: as §1, §2

[6] = 0.25 h after ^131I-ICdR at tail vein
[7] = 1 h after ^131I-ICdR at tail vein
[8] = 2 h after ^131I-ICdR at tail vein

SMILES: O=c1[nH]c(=O)n([C@H]2C[C@H](O)[C@@H](CO)O2)cc1I [IUdR]
in vivo physiological half life [1]: 5 min | in vivo physiological half life [2]: 7 min

SMILES: Cc1cn([C@@H]2O[C@H](CO)[C@@H](O)[C@@H]2[18F])c(=O)[nH]c1=O [[^18F]FMAU, 2-[^18F]fluoro-5-methyl-1-β-D-arabinofuranosyluracil]
stability in the organism [3]: very stable

^131I-ICdR (%) in Blood [4, 6]: 63.10 ± 1.17% | ^131I-ICdR (%) in Urine [4, 6]: 56.49 ± 6.58% | ^131I-IUdR (%) in Blood [4, 6]: 18.62 ± 2.25% | ^131I-IUdR (%) in Urine [4, 6]: 3.19 ± 1.03% | ^131I-I^- (%) in Blood [4, 6]: 18.28 ± 3.39% | ^131I-I^- (%) in Urine [4, 6]: 40.32 ± 6.18% | ^131I-compound (unknown) (%) in Blood [4, 6]: 0% | ^131I-compound (unknown) (%) in Urine [4, 6]: 0% | ^131I-ICdR (%) in Blood [4, 7]: 72.2% and 72.16 ± 3.66% | ^131I-ICdR (%) in Urine [4, 7]: 71.0% and 71 + 0.26% | ^131I-IUdR (%) in Blood [4, 7]: 0% | ^131I-IUdR (%) in Urine [4, 7]: 0% | ^131I-I^- (%) in Blood [4, 7]: 14.11 ± 6.15% | ^131I-I^- (%) in Urine [4, 7]: 26.54 ± 0.34% | ^131I-compound (unknown) (%) in Blood [4, 7]: 13.73 ± 1.38% | ^131I-compound (unknown) (%) in Urine [4, 7]: 2.46 ± 0.08% | ^131I-ICdR (%) in Blood [4, 8]: 67.77 ± 7.33% | ^131I-ICdR (%) in Urine [4, 8]: 81.1 ± 8.86% | ^131I-IUdR (%) in Blood [4, 8]: 0% | ^131I-IUdR (%) in Urine [4, 8]: 0% | ^131I-I^- (%) in Blood [4, 8]: 19 + 5.90% | ^131I-I^- (%) in Urine [4, 8]: 15.37 ± 7.67% | ^131I-compound (unknown) (%) in Blood [4, 8]: 13.23 ± 1.97% | ^131I-compound (unknown) (%) in Urine [4, 8]: 3.53 ± 1.96% | Biodistribution Blood (NG4TL4-WT tumor; 1 h): 6.21 ± 1.11 % ID/g | Biodistribution Bone (NG4TL4-WT tumor; 1 h): 0.96 ± 0.13 % ID/g | Biodistribution Brain (NG4TL4-WT tumor; 1 h): 0.25 ± 0.03 % ID/g | Biodistribution Heart (NG4TL4-WT tumor; 1 h): 1.45 + 0.14 % ID/g | Biodistribution Kidney (NG4TL4-WT tumor; 1 h): 3.96 ± 0.39 % ID/g | Biodistribution Large Intestine (NG4TL4-WT tumor; 1 h): 2.92 ± 0.18 % ID/g | Biodistribution Liver (NG4TL4-WT tumor; 1 h): 2.05 ± 0.20 % ID/g | Biodistribution Lung (NG4TL4-WT tumor; 1 h): 3.52 ± 0.48 % ID/g | Biodistribution Marrow (NG4TL4-WT tumor; 1 h): 3.29 ± 0.08 % ID/g | Biodistribution Muscle (NG4TL4-WT tumor; 1 h): 0.85 ± 0.04 % ID/g | Biodistribution Pancreas (NG4TL4-WT tumor; 1 h): 2.81 ± 0.42 % ID/g | Biodistribution Small Intestine (NG4TL4-WT tumor; 1 h): 4.79 ± 0.41 % ID/g | Biodistribution Spleen (NG4TL4-WT tumor; 1 h): 4.03 ± 0.55 % ID/g | Biodistribution Stomach (NG4TL4-WT tumor; 1 h): 17.07 + % ID/g | Biodistribution Tumor (NG4TL4-WT tumor; 1 h): 3.46 ± 0.07 % ID/g | T/B (aggregation ratio of tumor to blood) (NG4TL4-WT tumor; 1 h): 0.56 | T/M (tumor-muscle aggregation ratio) (NG4TL4-WT tumor; 1 h): 4.07 | Biodistribution Blood (NG4TL4-WT tumor; 2 h): 3.76 ± 0.13 % ID/g | Biodistribution Bone (NG4TL4-WT tumor; 2 h): 0.71 ± 0.19 % ID/g | Biodistribution Brain (NG4TL4-WT tumor; 2 h): 0.15 ± 0.03 % ID/g | Biodistribution Heart (NG4TL4-WT tumor; 2 h): 1.14 + 0.01 % ID/g | Biodistribution Kidney (NG4TL4-WT tumor; 2 h): 2.36 ± 0.06 % ID/g | Biodistribution Large Intestine (NG4TL4-WT tumor; 2 h): 2.54 ± 0.33 % ID/g | Biodistribution Liver (NG4TL4-WT tumor; 2 h): 1.43 ± 0.09 % ID/g | Biodistribution Lung (NG4TL4-WT tumor; 2 h): 2.72 ± 0.17 % ID/g | Biodistribution Marrow (NG4TL4-WT tumor; 2 h): 3.58 ± 1.12 % ID/g | Biodistribution Muscle (NG4TL4-WT tumor; 2 h): 0.61 ± 0.05 % ID/g | Biodistribution Pancreas (NG4TL4-WT tumor; 2 h): 2.08 ± 0.08 % ID/g | Biodistribution Small Intestine (NG4TL4-WT tumor; 2 h): 4.79 ± 0.45 % ID/g | Biodistribution Spleen (NG4TL4-WT tumor; 2 h): 3.07 ± 0.09 % ID/g | Biodistribution Stomach (NG4TL4-WT tumor; 2 h): 14.99 ± 4.04 % ID/g | Biodistribution Tumor (NG4TL4-WT tumor; 2 h): 3.78 ± 0.07 % ID/g | T/B (aggregation ratio of tumor to blood) (NG4TL4-WT tumor; 2 h): 1.00 | T/M (tumor-muscle aggregation ratio) (NG4TL4-WT tumor; 2 h): 6.16 | Biodistribution Blood (NG4TL4-WT tumor; 4 h): 3.40 ± 0.15 % ID/g | Biodistribution Bone (NG4TL4-WT tumor; 4 h): 0.77 ± 0.07 % ID/g | Biodistribution Brain (NG4TL4-WT tumor; 4 h): 0.12 ± 0.02 % ID/g | Biodistribution Heart (NG4TL4-WT tumor; 4 h): 0.84 + 0.07 % ID/g | Biodistribution Kidney (NG4TL4-WT tumor; 4 h): 2.07 ± 0.10 % ID/g | Biodistribution Large Intestine (NG4TL4-WT tumor; 4 h): 2.88 ± 0.21 % ID/g | Biodistribution Liver (NG4TL4-WT tumor; 4 h): 0.85 ± 0.01 % ID/g | Biodistribution Lung (NG4TL4-WT tumor; 4 h): 2.28 ± 0.12 % ID/g | Biodistribution Marrow (NG4TL4-WT tumor; 4 h): 3.82 ± 0.54 % ID/g | Biodistribution Muscle (NG4TL4-WT tumor; 4 h): 0.51 ± 0.04 % ID/g | Biodistribution Pancreas (NG4TL4-WT tumor; 4 h): 2.09 ± 0.13 % ID/g | Biodistribution Small Intestine (NG4TL4-WT tumor; 4 h): 5.27 ± 0.39 % ID/g | Biodistribution Spleen (NG4TL4-WT tumor; 4 h): 2.88 ± 0.13 % ID/g | Biodistribution Stomach (NG4TL4-WT tumor; 4 h): 17.68 ± 0.74 % ID/g | Biodistribution Tumor (NG4TL4-WT tumor; 4 h): 4.85 ± 0.17 % ID/g | T/B (aggregation ratio of tumor to blood) (NG4TL4-WT tumor; 4 h): 1.43 | T/M (tumor-muscle aggregation ratio) (NG4TL4-WT tumor; 4 h): 9.59 | Biodistribution Blood (NG4TL4-WT tumor; 8 h): 0.77 ± 0.10 % ID/g | Biodistribution Bone (NG4TL4-WT tumor; 8 h): 0.11 ± 0.02 % ID/g | Biodistribution Brain (NG4TL4-WT tumor; 8 h): 0.01 ± 0.00 % ID/g | Biodistribution Heart (NG4TL4-WT tumor; 8 h): 0.19 + 0.03 % ID/g | Biodistribution Kidney (NG4TL4-WT tumor; 8 h): 0.75 ± 0.02 % ID/g | Biodistribution Large Intestine (NG4TL4-WT tumor; 8 h): 1.33 ± 0.06 % ID/g | Biodistribution Liver (NG4TL4-WT tumor; 8 h): 0.38 ± 0.02 % ID/g | Biodistribution Lung (NG4TL4-WT tumor; 8 h): 0.69 ± 0.16 % ID/g | Biodistribution Marrow (NG4TL4-WT tumor; 8 h): 2.31 ± 0.10 % ID/g | Biodistribution Muscle (NG4TL4-WT tumor; 8 h): 0.09 ± 0.01 % ID/g | Biodistribution Pancreas (NG4TL4-WT tumor; 8 h): 0.38 ± 0.05 % ID/g | Biodistribution Small Intestine (NG4TL4-WT tumor; 8 h): 2.06 ± 0.13 % ID/g | Biodistribution Spleen (NG4TL4-WT tumor; 8 h): 2.77 ± 0.09 % ID/g | Biodistribution Stomach (NG4TL4-WT tumor; 8 h): 2.85 ± 0.61 % ID/g | Biodistribution Tumor (NG4TL4-WT tumor; 8 h): 2.32 ± 0.27 % ID/g | T/B (aggregation ratio of tumor to blood) (NG4TL4-WT tumor; 8 h): 3.02 | T/M (tumor-muscle aggregation ratio) (NG4TL4-WT tumor; 8 h): 25.77 | excretion of drug and metabolites (NG4TL4-WT tumor; mice): mainly through the urinary system | CL (total body clearance) [5]: 3.90 ± 0.59 mL/h
SMILES: Nc1nc(=O)n([C@H]2C[C@H](O)[C@@H](CO)O2)cc1[131I] [^131I-ICdR]
accumulation in organs (biodistribution and imaging) (NG4TL4-WT tumor; tumor-bearing mice): obviously accumulated in organs that rapidly proliferates | incorporation into cells / radioactive accumulation in DNA with time (NG4TL4 sarcoma cells): linearly incorporated | uptake value over time (LL/2 cells): continuously increased with time | uptake value over time (NG4TL4 cells): continuously increased with time
